Results as given in the supplement of paper PMC4862054.

How the values were obtained:
Details in all cases: incubation time: 72 h
BT-474 = assay: drug sensitivity score (DSS), CellTiter-Blue viability (DSS (AUC-based score)); higher = stronger viability inhibition; extreme values may be limits of the assay
Method: (§1)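 DSRT with the CellTiter-Blue (resazurin reduction) viability readout, fluorescence 560/590 nm, 72 h incubation. Plates were normalised to DMSO and benzethonium chloride controls. DSS is computed from the area under the fitted dose-response curve (5 or 9 concentrations).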

BT-549 = assay: as above
Method: as §1

CAL-120 = assay: as above
Method: as §1

CAL-148 [1] = assay: as above
Method: as §1

CAL-51 = assay: as above
Method: as §1

CAL-85-1 = assay: as above
Method: as §1

DU-4475 = assay: as above
Method: as §1

HCC1143 = assay: as above
Method: as §1

HCC1599 [2] = assay: as above
Method: as §1

HCC1937 = assay: as above
Method: as §1

HDQ-P1 = assay: as above
Method: as §1

Hs578T = assay: as above
Method: as §1

MDA-MB-231 = assay: as above
Method: as §1

MDA-MB-436 = assay: as above
Method: as §1

MDA-MB-453 = assay: as above
Method: as §1

MDA-MB-468 = assay: as above
Method: as §1

MFM-223 = assay: as above
Method: as §1

SK-BR-3 = assay: as above
Method: as §1

CAL-148 [3] = assay: drug sensitivity score (DSS), CellTiter-Glo (DSS (AUC-based score)); higher = stronger drug effect (viability inhibition or cytotoxicity); extreme values may be limits of the assay
Procedure, shortened: (§2)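 After 72 h of incubation in 384-well plates with compound at 5 concentrations (10-fold steps, 10,000-fold range set per compound), breast cancer cell lines seeded in 20 µl suspension were read first for CellTox Green fluorescence at 485/520 nm. CellTiter-Glo luminescence was measured next, after 10 min at room temperature. Normalisation on each plate used 0.1 % DMSO and a positive kill control, and the drug sensitivity score was computed from the area under the fitted dose-response curve.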

HCC1599 [4] = assay: as above
Procedure, shortened: as §2

Compound | drug sensitivity score (BT-474) | drug sensitivity score (BT-549) | drug sensitivity score (CAL-120) | drug sensitivity score (CAL-148 [1]) | drug sensitivity score (CAL-51) | drug sensitivity score (CAL-85-1) | drug sensitivity score (DU-4475) | drug sensitivity score (HCC1143) | drug sensitivity score (HCC1599 [2]) | drug sensitivity score (HCC1937) | drug sensitivity score (HDQ-P1) | drug sensitivity score (Hs578T) | drug sensitivity score (MDA-MB-231) | drug sensitivity score (MDA-MB-436) | drug sensitivity score (MDA-MB-453) | drug sensitivity score (MDA-MB-468) | drug sensitivity score (MFM-223) | drug sensitivity score (SK-BR-3) | drug sensitivity score (CAL-148 [3]) | drug sensitivity score (HCC1599 [4])
N.N.[Cl][Pt][Cl] [Cisplatin] | 0 | 0 | 0 | 0 | 0 | 0 | 0 | 0 | 0 | 0 | 0 | 0 | 0 | 0 | 0 | 0 | 0 | 0 | 0 | 0
CNCc1ccc(-c2[nH]c3cc(F)cc4c3c2CCNC4=O)cc1 [Rucaparib] | 0 | 0 | 0 | 1.96 | 1.41 | 0 | 0 | 0 | 0 | 6.08 | 0 | 0 | 2.45 | 0 | 2.23 | 0 | 1.28 | 0 | 1.62 | 0
Cc1ccc(C(=O)N(CCCN)[C@@H](c2oc3cc(Cl)ccc3c(=O)c2Cc2ccccc2)C(C)C)cc1 | 21.6 | 24.4 | 27.6 | 23.3 | 20.1 | 19.9 | 20.2 | 19.5 | 0 | 29.8 | 10.1 | 25.7 | 31.2 | 13.4 | 21.5 | 23.8 | 18.1 | 31.6 | 0 | 0
O=C1CCC(N2C(=O)c3ccccc3C2=O)C(=O)N1 (stereo not given) [Thalidomide] | 0 | 0 | 0 | 0 | 0 | 0 | 0 | 0 | 0 | 0 | 0 | 0 | 0 | 0 | 0 | 0 | 0 | 0 | 0 | 0
CC1(C)NC(=O)N(c2ccc([N+](=O)[O-])c(C(F)(F)F)c2)C1=O [Nilutamide] | 0 | 0 | 0 | 0 | 0 | 0 | 0 | 0 | 0 | 0 | 0 | 0 | 0 | 0 | 0 | 0 | 0 | 0 | 0 | 0
CCC1(c2ccc(N)cc2)CCC(=O)NC1=O (stereo not given) [Aminoglutethimide] | 0 | 0 | 0 | 0 | 0 | 0 | 0 | 0 | 0 | 0 | 0 | 0 | 0 | 0 | 0 | 0 | 0 | 0 | 0 | 0
CN(C)/N=N/c1[nH]cnc1C(N)=O [Dacarbazine] | 0 | 0 | 0 | 0 | 0 | 0 | 0 | 0 | 0 | 0 | 0 | 0 | 0 | 0 | 0 | 0 | 0 | 0 | 0 | 0
CC(C)Cn1cnc2c(N)nc3ccccc3c21 [Imiquimod] | 0 | 0 | 0 | 0 | 0 | 0 | 0 | 0 | 0 | 0 | 0 | 0 | 0 | 0 | 0.443 | 0 | 0 | 0 | 0 | 0
Cn1c(Nc2ccc(C(F)(F)F)cc2)nc2cc(Oc3ccnc(-c4ncc(C(F)(F)F)[nH]4)c3)ccc21 [RAF265] | 0 | 5.55 | 6.51 | 0 | 3.43 | 0 | 3.23 | 7.68 | 0 | 4.12 | 9.94 | 1.15 | 4.5 | 2.55 | 0 | 0.566 | 5.45 | 0 | 0 | 0
Cn1c(CCCC(=O)O)nc2cc(N(CCCl)CCCl)ccc21 [Bendamustine] | 0 | 0 | 0 | 0 | 0 | 0 | 0 | 0 | 0 | 0 | 0 | 0 | 0 | 0 | 0 | 0 | 0 | 0.0662 | 0 | 0
C#Cc1cccc(Nc2ncnc3cc(OCCOC)c(OCCOC)cc23)c1 [Erlotinib] | 4.23 | 0 | 3.43 | 5.88 | 0 | 8.53 | 0 | 0 | 3.83 | 4.19 | 7.17 | 0 | 0 | 2.82 | 2.55 | 5.57 | 0 | 3.78 | 1.84 | 0
Oc1nc(-c2ccc(C(F)(F)F)cc2)nc2c1CSCC2 [XAV-939] | 0 | 0 | 0 | 0 | 0 | 0 | 0 | 7.23 | 0 | 0 | 0.887 | 0 | 2.73 | 0 | 0 | 0 | 0 | 0 | 0 | 0
